What was measured:
[1] = target: SaClpP (Staphylococcus aureus ClpP) (Staphylococcus aureus, UniProt Q2G036, I91W); assay: PAGE-based α-casein hydrolysis activation assay; DSF; format: biochemical
[2] = target: T1, HsClpP (mitochondrial caseinolytic protease P) (Homo sapiens, UniProt Q16740); assay: biochemical; design: gene CLPP
[3] = target: T2, HsClpP (mitochondrial caseinolytic protease P) (Homo sapiens, UniProt Q16740, W146I); assay: biochemical
T2 construct: gene CLPP

[4] = target: T1, HsClpP (mitochondrial caseinolytic protease P); assay: X-ray crystal structure at […] Å; DSF (ΔTm […] °C); EC50 from FITC-casein FI protease assay; CETSA; format: biochemical; design: gene CLPP; HsClpPΔ56 (N-terminus 56 amino acids truncated)
[5] = target: T3, HsClpP (mitochondrial caseinolytic protease P) (Homo sapiens, UniProt Q16740, Y118A); assay: PAGE-based α-casein degradation assay; NanoDSF; format: biochemical
T3 construct: gene CLPP
T3 sequence (Q16740 57-277 Y118A): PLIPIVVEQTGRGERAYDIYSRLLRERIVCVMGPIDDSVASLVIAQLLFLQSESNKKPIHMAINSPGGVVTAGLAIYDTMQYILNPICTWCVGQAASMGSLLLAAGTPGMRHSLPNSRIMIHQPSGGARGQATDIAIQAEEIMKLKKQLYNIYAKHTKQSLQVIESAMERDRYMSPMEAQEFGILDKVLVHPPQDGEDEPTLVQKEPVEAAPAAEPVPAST

T2 sequence (Q16740 57-277 W146I): as the sequence (Q16740 57-277 Y118A) above, with A62Y, W90I counted along it
T1 sequence (Q16740 57-277): as the sequence (Q16740 57-277 Y118A) above, with A62Y counted along it

Compound	EC50 [1]	EC50 [2]	EC50 [3]	EC50 [4]	PAGE-based α-casein degradation assay; NanoDSF [5]
O=C(COc1ccc(Cl)cc1)N1CCN(Cc2cc(F)cc(F)c2)CC1 [ZK11]	8.4 µM	0.45 µM	42.4 µM	–	–
O=C(NCc1ccc(Br)cc1)N1CCN(Cc2cc(F)cc(F)c2)CC1 [ZK53]	5.4 µM	–	11.8 µM	0.22 µM	ZK53 is still effective to promote Y118A ClpP for α-casein degradation in PAGE assay
